The record followed here is PubChem BioAssay (NCI).

Each structure is given as a SMILES string.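 These data come from cells grown in 96-well plates and exposed to compound for 48 hours at five concentrations. At the GI50, growth is halved. At the TGI there is no net growth.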

Test systems include BT-549 breast; DU-145 prostate; NCI-H226 lung; OVCAR-5 ovarian; PC-3 prostate; SF-539 CNS; SK-MEL-2 melanoma; SK-OV-3 ovarian; SNB-19 CNS; UO-31 renal.
Common to all, as to assay: growth of human tumour cells (NCI), 48 h

Consider `O=[N+]([O-])c1cccc(/C=N/Nc2ccc3ccccc3n2)c1O`, for which the TGI was 37.9 µM in the assay on BT-549 breast; 17.7 µM with DU-145 prostate; 9.98 µM in the assay with NCI-H226 lung; 48.3 µM with OVCAR-5 ovarian; 56.7 µM in the assay with PC-3 prostate; 8.91 µM in the assay on SF-539 CNS. Also, the TGI is 34.8 µM in the assay with SK-MEL-2 melanoma, 11.1 µM in the assay with SK-OV-3 ovarian, 47.4 µM with SNB-19 CNS and 3 µM in the assay with UO-31 renal.
For `COc1cc(N=Nc2cc(Cc3ccc(N(C)C)cc3)c(N)cc2N(C)C)c2ncccc2c1`, the GI50 in the assay on BT-549 breast is 1.41 µM; with DU-145 prostate, 0.59 µM; in the assay on NCI-H226 lung, 0.754 µM; with OVCAR-5 ovarian, 0.801 µM; in the assay on PC-3 prostate it was 0.293 µM; in the assay with SF-539 CNS, 0.705 µM. Moreover, the GI50 is 0.562 µM with SK-MEL-2 melanoma, 0.406 µM in the assay on SK-OV-3 ovarian, 0.577 µM in the assay on SNB-19 CNS and 0.252 µM in the assay with UO-31 renal. Moreover, the TGI in the assay on BT-549 breast is 5.63 µM; in the assay with DU-145 prostate, 2.17 µM; in the assay on NCI-H226 lung, 8.28 µM; in the assay on OVCAR-5 ovarian, 2.66 µM; with PC-3 prostate, 3.03 µM; in the assay with SF-539 CNS, 2.06 µM. Further, the TGI was 4.17 µM in the assay with SK-MEL-2 melanoma, 8.17 µM in the assay on SK-OV-3 ovarian, 3.71 µM with SNB-19 CNS and 1.97 µM with UO-31 renal.
For the compound `COC(=O)c1c(C)nc(C)c2c1C(=O)C(Br)=C(NCc1ccccc1)C2=O`, the GI50 in the assay with BT-549 breast was 4.09 µM; in the assay with DU-145 prostate it was 4.26 µM; in the assay with NCI-H226 lung, 4.01 µM; with OVCAR-5 ovarian, 3.11 µM; in the assay with PC-3 prostate, 2.73 µM; in the assay on SF-539 CNS, 2.85 µM. Also, the GI50 is 2.52 µM with SK-MEL-2 melanoma, 6.2 µM in the assay on SK-OV-3 ovarian, 3.04 µM with SNB-19 CNS and 2.41 µM with UO-31 renal. The TGI in the assay on BT-549 breast stood at 15.4 µM; with DU-145 prostate, 13 µM; in the assay on NCI-H226 lung, 18 µM; with OVCAR-5 ovarian, 7.9 µM; in the assay with PC-3 prostate it was 10.9 µM; in the assay on SF-539 CNS, 8.01 µM. In addition, the TGI came to 6.63 µM in the assay with SK-MEL-2 melanoma, 19.2 µM in the assay on SK-OV-3 ovarian, 9.23 µM in the assay on SNB-19 CNS and 10.7 µM in the assay with UO-31 renal.
In the case of `O=c1cc(-c2ccccc2)oc2ccc(Cl)cc12`, the TGI was greater than 100 µM in the assay on BT-549 breast; greater than 100 µM in the assay on DU-145 prostate; greater than 100 µM in the assay on NCI-H226 lung; greater than 100 µM with OVCAR-5 ovarian; greater than 80.3 µM with PC-3 prostate; greater than 97.4 µM in the assay on SF-539 CNS. Further, the TGI in the assay on SK-MEL-2 melanoma is greater than 100 µM; in the assay on SK-OV-3 ovarian it was greater than 100 µM; with SNB-19 CNS, greater than 81.7 µM; with UO-31 renal, greater than 88.8 µM.
Consider `COc1cc2ncn(-c3cc(OCc4ccccc4C(F)(F)F)c(C(N)=O)s3)c2cc1OC`, for which the GI50 in the assay with BT-549 breast is 1.64 µM; with DU-145 prostate it was 0.0924 µM; in the assay with NCI-H226 lung, 1.01 µM; in the assay on OVCAR-5 ovarian, 0.178 µM; in the assay on PC-3 prostate, 0.214 µM; with SF-539 CNS, 0.139 µM. The GI50 with SK-MEL-2 melanoma is 0.207 µM; in the assay with SK-OV-3 ovarian, 0.251 µM; in the assay on SNB-19 CNS it was 2.4 µM; with UO-31 renal, greater than 18.4 µM. Besides, the TGI with BT-549 breast is greater than 19.5 µM; in the assay on DU-145 prostate, 0.407 µM; in the assay on NCI-H226 lung, greater than 25 µM; in the assay on OVCAR-5 ovarian, greater than 25 µM; in the assay on PC-3 prostate it was greater than 25 µM; with SF-539 CNS it was greater than 11.6 µM. Moreover, the TGI in the assay on SK-MEL-2 melanoma is 12.3 µM; with SK-OV-3 ovarian, 9.09 µM; with SNB-19 CNS it was greater than 19.3 µM; in the assay with UO-31 renal it was greater than 25 µM.
Regarding `Cc1cc(NC(=O)NCc2ccc(N3C(N)=NC(N)=NC3(C)C)cc2)ccc1S(=O)(=O)F`, the GI50 in the assay on BT-549 breast was 4.97 µM; in the assay on DU-145 prostate, 1.35 µM; in the assay with NCI-H226 lung, greater than 61.2 µM; in the assay with OVCAR-5 ovarian it was greater than 25.4 µM; in the assay on PC-3 prostate, 0.0962 µM; in the assay on SF-539 CNS, 2.38 µM. Further, the GI50 in the assay with SK-MEL-2 melanoma was 45 µM; in the assay on SK-OV-3 ovarian, 36.6 µM; in the assay with SNB-19 CNS, 11.7 µM; with UO-31 renal it was greater than 100 µM. Further, the TGI in the assay with BT-549 breast is greater than 67.6 µM; in the assay with DU-145 prostate, greater than 100 µM; in the assay on NCI-H226 lung, greater than 100 µM; in the assay on OVCAR-5 ovarian, greater than 100 µM; in the assay with PC-3 prostate it was 31 µM; in the assay with SF-539 CNS, greater than 69.2 µM. Moreover, the TGI in the assay on SK-MEL-2 melanoma, in the assay on SK-OV-3 ovarian, in the assay on SNB-19 CNS and in the assay on UO-31 renal was greater than 100 µM in each case.
On to `CNC(=O)CCN1CCN(CC/C=C2\c3ccccc3Sc3ccc(Cl)cc32)CC1`, for which the GI50 with BT-549 breast was 10.7 µM; in the assay on DU-145 prostate it was 11.9 µM; in the assay with NCI-H226 lung it was 19 µM; in the assay on OVCAR-5 ovarian, 22.6 µM; in the assay with PC-3 prostate, 9.07 µM; in the assay on SF-539 CNS, 12.5 µM. Also, the GI50 is 14.1 µM with SK-MEL-2 melanoma, 16.4 µM with SK-OV-3 ovarian, 16 µM in the assay with SNB-19 CNS and 11.4 µM with UO-31 renal. Besides, the TGI with BT-549 breast is 24 µM; with DU-145 prostate, 26.4 µM; in the assay on NCI-H226 lung it was 37.9 µM; in the assay with OVCAR-5 ovarian, 41.2 µM; with PC-3 prostate, greater than 45 µM; in the assay on SF-539 CNS, 25.6 µM. The TGI in the assay with SK-MEL-2 melanoma was 32.4 µM; in the assay with SK-OV-3 ovarian, 31.2 µM; with SNB-19 CNS, 30.7 µM; with UO-31 renal, 27.4 µM.
